Where two headings read alike, the source gives them in different places.
Tested on: ALP in normal human articular chondrocytes (NHACs)
Assay: Alkaline Phosphatase (ALP) activity assay (staining and quantitation) in NHACs, prevention of chondrocyte hypertrophy
Assay type: cell-based
Settings: human IL-1 beta 10 ng/mL, 12 days; for IC50: Fast Blue RR staining, high content imaging, read-out: ALP in NHAC IC50; for Emax / ALP in NHAC (% Efficacy): value in parentheses; for Emax: read-out: ALP in NHAC (% Efficacy)
How it was run: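 Hypertrophy readout: ALP staining (Fast Blue RR with naphthol AS-MX phosphate) plus Hoechst, imaged at 561 nm and/or quantified by high-content multiwavelength cell scoring. Before staining, NHACs (7,500/well, DMEM/10% FBS) were exposed to compound for 5 h, then cultured with 10 ng/mL IL-1β for 12 days at 37 °C.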

| SMILES | IC50 (Chondrocyte, 288 h) | Emax (Chondrocyte, 288 h) | IC50 | ALP in NHAC (% Efficacy) |
| --- | --- | --- | --- | --- |
| Cc1cc(NC(=O)[C@@H]2[C@@H](c3cc(C(F)(F)F)nn3C)[C@H]3O[C@@H]2C[C@@H]3O)cc(C(F)(F)F)c1 (racemic) [Example 71, rac-(1R,2R,3S,4R,5S)-5-hydroxy-3-(1-methyl-3-(trifluoromethyl)-1H-pyrazol-5-yl)-N-(3-methyl-5-(trifluoromethyl)phenyl)-7-oxabicyclo[2.2.1]heptane-2-carboxamide] | > 30 µM | 29% |  |  |
| Cn1nc(C(F)(F)F)cc1[C@H]1[C@H]2O[C@H](C[C@@H]2O)[C@@H]1C(=O)Nc1cc(C(F)(F)F)ccc1C#N (racemic) [Example 72, rac-(1R,2R,3S,4R,5S)—N-(2-cyano-5-(trifluoromethyl)phenyl)-5-hydroxy-3-(1-methyl-3-(trifluoromethyl)-1H-pyrazol-5-yl)-7-oxabicyclo[2.2.1]heptane-2-carboxamide] | 2.1 µM | 72% |  |  |
| Cn1nc(C(F)(F)F)cc1[C@H]1[C@H]2O[C@H](C[C@@H]2O)[C@@H]1C(=O)Nc1ccc(C(F)(F)F)c(Cl)c1 (racemic) [Example 73, rac-(1R,2R,3S,4R,5)-N-(3-chloro-4-trifluoromethyl)phenyl)-5-hydroxy-3-(1-methyl-3-(trifluoromethyl)-1H-pyrazol-5-yl)-7-oxabicyclo[2.2.1]heptane-2-carboxamide] | 7.1 µM | 105% |  |  |
| Cn1nc(C(F)(F)F)cc1[C@H]1[C@H]2O[C@H](C[C@@H]2O)[C@@H]1C(=O)Nc1cc(C(F)(F)F)ccn1 (racemic) [Example 74, rac-(1R,2R,3,4R,5)-5-hydroxy-3-(1-methy-3-(trifluoromethyl)-1H-pyrazol-5-yl)-N-(4-(trifluoromethyl)pyridin-2-yl-7-oxabicyclo[2.2.1]heptane-2-carboxamide] | 11 µM | 64% |  |  |
| Cn1nc(C(F)(F)F)cc1[C@H]1[C@H]2O[C@H](C[C@@H]2O)[C@@H]1C(=O)Nc1cc(C(F)(F)F)ccc1F (racemic) [Example 75, rac-(1R,2R,3S,4R,5S)—N-(2-fluoro-S-trifluoromethyl)phenyl)-5-hydroxy-3-(1-methyl-3-(trifluoromethyl)-1H-pyrazol-5-yl)-7-oxabicyclo[2.2.1]heptane-2-carboxamide] | > 30 µM | 46% |  |  |
| COc1cc([C@H]2[C@H]3O[C@H](C[C@@H]3O)[C@@H]2C(=O)Nc2cc(C(F)(F)F)ccc2F)ccn1 (racemic) [Example 76, rac-(1R,2R,3S,4R,5S)—N-(2-fluoro-5-(trifluoromethyl)phenyl)-5-hydroxy-3-(2-methoxypyridin-4-yl)-7-oxabicyclo[2.2.1]heptane-2-carboxamide] | 7.2 µM | 53% |  |  |
| COc1cc([C@H]2[C@H]3O[C@H](C[C@@H]3O)[C@@H]2C(=O)Nc2cc(C(F)(F)F)ccn2)ccn1 (racemic) [Example 77, rac-(1R,2R,3S,4R,5)-5-hydroxy-3-(2-methoxypyridin-4-yl)-N-(4-(trifluoromethyl)pyridin-2-yl)-7-oxabicyclo[2.2.1]heptane-2-carboxamide] | 15 µM | 76% |  |  |
| COc1cc([C@H]2[C@H]3O[C@H](C[C@@H]3O)[C@@H]2C(=O)Nc2cc(C(F)(F)F)ccc2C#N)ccn1 (racemic) [Example 78, rac-(1R,2R,3S,4R,5)-N-(2-cyano-5-trifluoromethyl)phenyl)-5-hydroxy-3-(2-methoxypyridin-4-yl)-7-oxabicyclo[2.2.1]heptane-2-carboxamide] | 0.055 µM | 74% |  |  |
| COc1cc([C@H]2[C@H]3O[C@H](C[C@@H]3O)[C@@H]2C(=O)Nc2ccc(C(F)(F)F)c(Cl)c2)ccn1 (racemic) [Example 79, rac-(1R,2R,3S,4R,5S)—N-(3-chloro-4-trifluoromethyl)phenyl)-5-hydroxy-3-(2-methoxypyridin-4-yl)-7-oxabicyclo[2.2.1]heptane-2-carboxamide] | 12 µM | 75% |  |  |
| O=C(Nc1cccc(C(F)(F)F)c1)[C@@H]1[C@@H](c2ccnc(F)c2)[C@H]2O[C@@H]1C[C@@H]2O (racemic) [Example 80, rac-(1R 2R,3S,4R,5S)-3-(2-fluoropyridin-4-yl)-5-hydroxy-N-(3-(trifluoromethyl)phenyl)-7-oxabicyclo[2.2.1]heptane-2-carboxamide] | 23 µM | 34% |  |  |
| O=C(Nc1cccc(C(F)(F)F)c1)[C@@H]1[C@@H](c2cncc(C(F)(F)F)c2)[C@H]2O[C@@H]1C[C@@H]2O (racemic) [Example 81, rac-(1R,2R,3S,4R,5S)-5-hydroxy-N-(3-(trifluoromethyl)phenyl)-3-(5-(trifluoromethyl)pyridin-3-yl)-7-oxabicyclo[2.2.1]heptane-2-carboxamide] | 19 µM | 59% |  |  |
| O=C(Nc1cccc(C(F)(F)F)c1)[C@@H]1[C@@H](c2ccc(C(F)(F)F)nc2)[C@H]2O[C@@H]1C[C@@H]2O (racemic) [Example 82, rac-(1R,2R,3S,4R,5S)-5-hydroxy-N-(3-(trifluoromethyl)phenyl)-3-(6-(trifluoromethyl)pyridin-3-yl)-7-oxabicyclo[2.2.1]heptane-2-carboxamide] | 4.6 µM | 78% |  |  |
| O=C(Nc1cccc(C(F)(F)F)c1)[C@@H]1[C@@H](c2cnc(C(F)(F)F)nc2)[C@H]2O[C@@H]1C[C@@H]2O (racemic) [Example 83, rac-(1R,2R,3S,4R,5S)-5-hydroxy-N-(3-(trifluoromethyl)phenyl)-3-(2-(trifluoromethyl)pyrimidin-5-yl)-7-oxabicyclo[2.2.1]heptane-2-carboxamide] | 24 µM | 43% |  |  |
| CC(C)n1cc([C@H]2[C@H]3O[C@H](C[C@@H]3O)[C@@H]2C(=O)Nc2cc(C(F)(F)F)ccc2C#N)c(C(F)(F)F)n1 (racemic) [Example 84, rac-(1R,2R,3S,4R,5S)—N-(2-cyano-5-(trifluoromethyl)phenyl)-5-hydroxy-3-(1-isopropyl-3-(trifluoromethyl)-1H-pyrazol-4-yl)-7-oxabicyclo[2.2.1]heptane-2-carboxamide] | 0.29 µM | 86% |  |  |
| CC(C)n1cc([C@H]2[C@H]3O[C@H](C[C@@H]3O)[C@@H]2C(=O)Nc2cc(C(F)(F)F)ccc2F)c(C(F)(F)F)n1 (racemic) [Example 85, rac-(1R,2R,3S,4R,5S)—N-(2-fluoro-5-(trifluoromethyl)phenyl)-5-hydroxy-3-(1-isopropyl-3-(trifluoromethyl-1H-pyrazol-4-yl-7-oxabicyclo[2.2.1]heptane-2-carboxamide] | > 30 µM | 44% |  |  |
| CC(C)n1cc([C@H]2[C@H]3O[C@H](C[C@@H]3O)[C@@H]2C(=O)Nc2cc(C(F)(F)F)ccn2)c(C(F)(F)F)n1 (racemic) [Example 86, rac-(1R,2R,3S,4R,5S)-5-hydroxy-3-(1-isopropyl-3-(trifluoromethyl)-1H-pyrazol-4-yl)-N-(4-(trifluoromethyl)pyridin-2-yl)-7-oxabicyclo[2.2.1]heptane-2-carboxamide] | 11 µM | 83% |  |  |
| CC(C)n1cc([C@H]2[C@H]3O[C@H](C[C@@H]3O)[C@@H]2C(=O)Nc2ccc(C(F)(F)F)c(Cl)c2)c(C(F)(F)F)n1 (racemic) [Example 87, rac-(1R,2R,3S,4R,5S)—N-(3-chloro-4-trifluoromethyl)phenyl)-5-hydroxy-3-(1-isopropyl-3-(trifluoromethyl)-1H-pyrazol-4-yl)-7-oxabicyclo[2.2.1]heptane-2-carboxamide] | 14 µM | 64% |  |  |
| Cc1cc(NC(=O)[C@@H]2[C@@H](c3cn(C(C)C)nc3C(F)(F)F)[C@H]3O[C@@H]2C[C@@H]3O)cc(C(F)(F)F)c1 (racemic) [Example 88, rac-(1R,2R,3S,4R,5S)-5-hydroxy-3-(1-isopropyl-3-(trifluoromethyl)-1H-pyrazol-4-yl)-N-(3-methyl-5-(trifluoromethyl)phenyl)-7-oxabicyclo[2.2.1]heptane-2-carboxamide] | > 30 µM | 20% |  |  |
| Cc1ccc(NC(=O)[C@@H]2[C@@H](c3cn(C(C)C)nc3C(F)(F)F)[C@H]3O[C@@H]2C[C@@H]3O)cc1C(F)(F)F (racemic) [Example 89, rac-(1R,2R,3S,4R,5S)-5-hydroxy-3-(1-isopropyl-3-trifluoromethyl)-1H-pyrazol-4-yl)-N-(4-methyl-3-(trifluoromethyl)phenyl)-7-oxabicyclo[2.2.1]heptane-2-carboxamide] | 19 µM | 40% |  |  |
| O=C(Nc1ccc(C(F)(F)F)c(Cl)n1)[C@@H]1[C@@H](c2cccc(C(F)(F)F)c2)[C@H]2O[C@@H]1C[C@@H]2O (single isomer, unassigned) [Example 25a, (1R,2R,3S,4R,5S)—N-(6-chloro-5-(trifluoromethyl)pyridin-2-yl)-5-hydroxy-3-(3-(trifluoromethyl)phenyl)-7-oxabicyclo[2.2.1]heptane-2-carboxamide or (1S,2S,3R,4S,5R)—N-(6-chloro-5-(trifluoromethylpyridin-2-yl)-5-hydroxy-3-(3-(trifluoromethyl)phenyl)-7-oxabicyclo[2.2.1]heptane-2-carboxamide] |  |  | 0.55 µM | 89% |
| O=C(Nc1ccc(C(F)(F)F)c(Cl)n1)[C@@H]1[C@@H](c2cccc(C(F)(F)F)c2)[C@H]2O[C@@H]1C[C@@H]2O (single isomer, unassigned) [Example 25b, (1R,2R,3S,4R,5S)—N-(6-chloro-5-(trifluoromethyl)pyridin-2-yl)-5-hydroxy-3-(3-(trifluoromethyl)phenyl)-7-oxabicyclo[2.2.1]heptane-2-carboxamide or (1S,2S,3R,4S,5R)—N-(6-chloro-5-(trifluoromethylpyridin-2-yl)-5-hydroxy-3-(3-(trifluoromethyl)phenyl)-7-oxabicyclo[2.2.1]heptane-2-carboxamide] |  |  | 0.84 µM | 99% |
